Laboratory results from patent US9789102B2, “H3 receptor antagonist for use in the treatment of alzheimer's disease” (SANOFI, priority 2012, dated 2017).

Legend:
[1] = tested on: tau phosphorylation on AD2 epitope (pSer396-pSer404); assay: Western blot of tau phosphorylation on AD-2 epitope after six months in food (Example 3); type: in vivo, THY-Tau22 mice; details: 0.0034% in food
Description: 2-(Cyclohexylmethyl)-N-{2-[(2S)-1-methylpyrrolidin-2-yl]ethyl}-1,2,3,4-tetrahydroisoquinoline-7-sulfonamide difumarate monohydrate was administrated as a supplement in food at doses of 0.00034%, 0.0034% and 0.034% for six months in THY-Tau22 and wild type mice as follows: • Tg Veh (n=17) • Tg Active Ingredient—0.034% (n=17) • Tg Active Ingredient—0.0034% (n=17) • Tg Active Ingredient—0.00034% (n=17) • WT Veh (n=17) • WT Active Ingredient—0.034% (n=17) • WT Active Ingredient—0.0034% (n=17) • WT Active Ingredient—0.00034% (n=17) • WT groups treated with Active Ingredient are not used in the biochemical and histological studies.
(§1) For immunoblot analysis, frozen mouse tissues (either hippocampus or cortex) were homogenized using a Precellys 24 tissue homogenizer in 350 μl RIPA buffer from Cell Signaling (20 mM Tris-HCl (pH 7.5), 150 mM NaCl, 1 mM Na2 EDTA, 1 mM EGTA, 1% NP-40, 1% sodium deoxycholate, 2.5 mM sodium pyrophosphate, 1 mM beta-glycerophosphate, 1 mM Na3VO4, 1 μg/ml leupeptin) to which proteases inhibitors (Sigma cocktail 1% v/v) and phosphatases inhibitors (okadaic acid 1 μM, sodium fluoride 100 mM) were added. After centrifugation, 16000×g 4° C. for 10 minutes, protein content in supernatants was determined with BioRad DC Protein Assay kit, using BSA as a standard. Equal amounts of protein (5 μg) were loaded on 15-well 4-12% Bis-Tris gels (NuPAGE, Invitrogen) and electrophoresis was performed at 200V for 50 minutes in MOPS buffer according to the manufacturer's instructions. […] Tau protein was detected using the following mouse antibody: AD-2 1/20.000^e (Biorad, 56484) which recognizes tau protein phosphorylated on Ser396 and Ser404. […]
(§2) Following incubation with primary antibodies, blots were rinsed in TBS Tween 0.1% and incubated for 1 hour at room temperature in an anti-mouse IgG horseradish peroxidase (HRP)-linked secondary antibody 1/10,000^e (GE healthcare, NA9310) diluted in 5% non-fat dry milk in TBS Tween 0.1%. […] Quantification of immunoreactive signal was performed using Multigauge V3.0 software (FUJIFILM). […]

[2] = tested on: protein tau phosphorylation at AD-2 epitope; assay: Western blot of tau phosphorylation at AD-2 epitope after two-week administration (Example 2); type: in vivo; details: THY-Tau22 mice
Experimental: as §1, with “standard.” for “standard. Equal amounts of protein (5 μg) were loaded on 15-well 4-12% Bis-Tris gels (NuPAGE, Invitrogen) and electrophoresis was performed at 200V for 50 minutes in MOPS buffer according to the manufacturer's instructions.”
as §2

[3] = Comparison of exposures in mice (6 months in food) with those expected at steady state in AD patients; type: in vivo
[4] = tested on: protein tau phosphorylation at AD-2 epitope; assay: Western blot of tau phosphorylation at AD-2 epitope after single administration (Example 1); type: in vivo; details: THY-Tau22 mice
Experimental: as §1, with “standard.” for “standard. Equal amounts of protein (5 μg) were loaded on 15-well 4-12% Bis-Tris gels (NuPAGE, Invitrogen) and electrophoresis was performed at 200V for 50 minutes in MOPS buffer according to the manufacturer's instructions.”
as §2

Compound: CN1CCC[C@H]1CCNS(=O)(=O)c1ccc2c(c1)CN(CC1CCCCC1)CC2 [2-(cyclohexylmethyl)-N-{2-[(2S)-1-methylpyrrolidin-2-yl]ethyl}-1,2,3,4-tetrahydroisoquinoline-7-sulfonamide difumarate monohydrate]
- protein tau phosphorylation on AD-2 epitope in hippocampus, vs vehicle ([1]; THY-Tau22 mice): statistical significant decrease
- inhibition of tau phosphorylation at the AD-2 epitope, cortex ([1]; Western blot, non-significant, p=0.1807): −57%
- inhibition of tau phosphorylation at the AD-2 epitope, hippocampus ([1]; Western blot, p=0.0229 vs vehicle): −37%
- effect on protein tau phosphorylation at AD-2 epitope in the hippocampus ([2]; 0.002% in drinking water): did not elicit any effect
- effect on protein tau phosphorylation at AD-2 epitope in the hippocampus ([2]; 0.02% in drinking water): did not elicit any effect
- corresponding human dose (safe for patients) by comparison of exposures ([3]; 0.00034% in food of mice): about 0.25 mg
- corresponding human dose (safe for patients) by comparison of exposures ([3]; 0.0034% in food of mice): about 2.5 mg
- effect on protein tau phosphorylation at AD-2 epitope in the cortex ([4]; 3 mg/kg per os): did not elicit any effect
- effect on protein tau phosphorylation at AD-2 epitope in the cortex ([4]; 10 mg/kg per os): did not elicit any effect
